Marks after values point to notes of the source that are not given here.
System: prostate gland
Assay: Prostate weight in male rats after once daily intravenous infusion for four weeks
Format: in vivo, rat
Conditions: 15-min iv infusion once daily for four weeks, N=10
Protocol: Male rats were divided into a control group and three test groups with 20 animals per group. Animals were administered the MetAP-2 inhibitor Compound I, represented by the formula: Compound I was prepared in a 5% mannitol solution was administered once daily for four weeks by a fifteen-minute intravenous infusion according to Table I. [table] Ten animals from each group were euthanized at the end of the four weeks. The remaining ten animals were allowed to recover for 10 additional weeks and were then euthanized.

For `CO[C@@H]1[C@H](OC(=O)/C=C/c2ccc(OCCN(C)C)cc2)CCC2(CO2)[C@H]1[C@@]1(C)O[C@@H]1CC=C(C)C` (stereo in doubt) [Compound I], the “Prostate Weight (g) Mean” value (0.04 mg/kg/day) was 0.90** g, the “Prostate Weight (g) Mean” value (0.2 mg/kg/day) was 0.89** g and the “Prostate Weight (g) Mean” value (1.0 mg/kg/day) was 0.76** g.
